Entries after “also recorded” stand apart in the source; their conditions may differ.
How the values were obtained:
MX1 = MX1 (interferon-stimulated gene) mRNA expression in keratinocytes (qRT-PCR); assay type: cell-based, human; conditions: all KO KCs treated, FIG. 7
Procedure: (§1) Immortalized keratinocyte cell line, N/TERT1, was used with permission for generation of knock-out (KO) cell lines using non-homologous end joining via CRISPR/Cas9. […] N/TERTs were grown in Keratinocyte-SFM medium (ThermoFisher #17005-042) supplemented with 30 μg/ml bovine pituitary extract, 0.2 ng/ml epidermal growth factor, and 0.3 mM calcium chloride (2).
(§2) CRISPR KO KCs were generated as previously described (3). In brief, Single-guide RNA (sgRNA) target sequence was developed using a web interface for CRISPR design (https://portals.broadinstitute.org/gpp/public/analysis-tools/sgrna-design). Synthetic sgRNA target sequences were inserted into a cloning backbone, pSpCas9 (BB)-2A-GFP (PX458) (Addgene plasmid #48138) and then cloned into competent E. coli (ThermoFisher #C737303). Proper insertion was validated by Sanger sequencing. […] Cells were then genotyped and analyzed by Sanger sequencing.
(§3) RNA extraction, qRT-PCR and RNA-Sequencing were performed following the protocol published earlier (3). […] We used STAR to align RNA-seq reads to the human genome, using annotations of GENCODE as gene model. HTSeq was used to quantify gene expression levels; normalization and differential expression analysis were performed by DESeq2.

IFNK = IFNK mRNA expression in keratinocytes (qRT-PCR); assay type: cell-based, human; conditions: all KO KCs treated, FIG. 3B
Procedure: as §1, §2, §3

## Nc1ncn([C@H]2C[C@H](O)[C@@H](CO)O2)c(=O)n1 [5-dAza-c]
MX1
  MX1 mRNA expression in CRISPR-cas9 generated KO keratinocytes after demethylating agent: significant increase
IFNK
  IFNK mRNA expression in CRISPR-cas9 generated KO keratinocytes after demethylating agent: Reversal; also recorded: significant increase

Reference: patent publication US20240252549A1, “COMPOSITIONS AND METHODS TO TRANSFECT, TEST, AND TREAT SKIN CELLS” (The Regents of the University of Michigan, priority 2021, published 2024)
